Assay results published in paper PMC2924751 (Chemical research in toxicology, 2010).

Assays:
P450 3A5 = P450 3A5 (Homo sapiens, UniProt P20815); assay: in vitro
P450 3A4 = P450 3A4 (Homo sapiens, UniProt P08684); assay: in vitro
Chain of P450 3A4 (P08684 2-503): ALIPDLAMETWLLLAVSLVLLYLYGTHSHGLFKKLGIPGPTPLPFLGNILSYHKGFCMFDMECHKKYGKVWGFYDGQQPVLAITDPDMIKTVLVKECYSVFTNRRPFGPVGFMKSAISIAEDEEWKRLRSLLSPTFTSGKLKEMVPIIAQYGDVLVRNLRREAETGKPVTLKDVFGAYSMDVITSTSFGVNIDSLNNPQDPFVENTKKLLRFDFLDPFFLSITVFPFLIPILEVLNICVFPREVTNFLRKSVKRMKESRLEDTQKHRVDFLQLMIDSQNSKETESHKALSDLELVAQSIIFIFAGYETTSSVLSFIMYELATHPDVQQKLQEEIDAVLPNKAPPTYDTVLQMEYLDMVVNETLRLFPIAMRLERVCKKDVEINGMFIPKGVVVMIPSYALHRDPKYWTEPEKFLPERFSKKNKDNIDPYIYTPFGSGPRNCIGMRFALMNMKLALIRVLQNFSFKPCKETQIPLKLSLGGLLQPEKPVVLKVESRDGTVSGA
Chain of P450 3A4 (P16435 2-677 partner): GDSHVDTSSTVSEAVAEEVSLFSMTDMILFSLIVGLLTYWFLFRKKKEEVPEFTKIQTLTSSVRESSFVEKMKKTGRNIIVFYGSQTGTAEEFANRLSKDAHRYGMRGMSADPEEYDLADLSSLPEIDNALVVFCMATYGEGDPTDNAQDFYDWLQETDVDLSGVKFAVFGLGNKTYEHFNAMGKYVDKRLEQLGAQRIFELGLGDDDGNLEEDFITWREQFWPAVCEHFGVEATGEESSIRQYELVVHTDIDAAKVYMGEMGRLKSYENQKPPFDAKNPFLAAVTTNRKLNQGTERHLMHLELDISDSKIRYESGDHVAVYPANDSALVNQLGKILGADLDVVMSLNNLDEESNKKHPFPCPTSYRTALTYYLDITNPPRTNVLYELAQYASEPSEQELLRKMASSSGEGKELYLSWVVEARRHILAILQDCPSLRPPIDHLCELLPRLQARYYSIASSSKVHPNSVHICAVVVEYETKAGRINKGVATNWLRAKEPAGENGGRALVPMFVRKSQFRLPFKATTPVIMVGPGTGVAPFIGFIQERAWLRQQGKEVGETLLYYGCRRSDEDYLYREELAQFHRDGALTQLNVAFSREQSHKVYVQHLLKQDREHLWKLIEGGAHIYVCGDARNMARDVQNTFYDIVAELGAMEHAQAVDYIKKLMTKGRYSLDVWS
Chain of P450 3A4 (P00167 2-134 partner): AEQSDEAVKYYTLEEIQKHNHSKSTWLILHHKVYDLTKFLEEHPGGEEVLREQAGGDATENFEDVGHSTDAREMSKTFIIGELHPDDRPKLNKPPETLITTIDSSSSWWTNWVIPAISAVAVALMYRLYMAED

Chain of P450 3A5 (P20815 whole entry): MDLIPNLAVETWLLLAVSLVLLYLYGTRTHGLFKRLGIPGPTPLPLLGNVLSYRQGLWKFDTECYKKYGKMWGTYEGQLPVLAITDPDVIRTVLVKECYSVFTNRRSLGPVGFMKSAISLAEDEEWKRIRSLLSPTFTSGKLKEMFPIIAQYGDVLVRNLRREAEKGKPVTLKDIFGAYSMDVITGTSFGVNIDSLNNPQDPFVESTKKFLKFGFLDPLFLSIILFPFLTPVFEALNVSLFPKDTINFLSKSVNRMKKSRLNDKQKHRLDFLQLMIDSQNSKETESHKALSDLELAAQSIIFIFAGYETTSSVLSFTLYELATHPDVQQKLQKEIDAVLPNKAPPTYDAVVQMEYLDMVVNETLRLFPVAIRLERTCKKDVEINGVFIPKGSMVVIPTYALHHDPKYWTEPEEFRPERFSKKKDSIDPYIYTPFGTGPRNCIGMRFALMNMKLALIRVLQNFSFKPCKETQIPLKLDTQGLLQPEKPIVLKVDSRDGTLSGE
Chain of P450 3A5 (P16435 2-677 partner): as the sequence (P16435 2-677 partner) above
Chain of P450 3A5 (P00167 2-134 partner): as the sequence (P00167 2-134 partner) above

KI (inactivation) (P450 3A5): 16 µM | KI (inactivation) (P450 3A4): 3.5 µM
Compound: CCC(=O)O[C@]1(C(=O)SCF)[C@H](C)C[C@H]2[C@@H]3C[C@H](F)C4=CC(=O)C=C[C@]4(C)[C@@]3(F)[C@@H](O)C[C@@]21C [FLT, fluticasone propionate]
